Test results published in ChEMBL document CHEMBL1201862, “PubChem BioAssay data set” (2004).
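Tested at 5 concentrations; 48 h exposure; 96-well plates; endpoints linearly interpolated, else capped at highest concentration. GI50 = concentration required for 50% inhibition of growth.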 Activity calls are given as the source filed them. Cut-off read from the data, not from the text of the source: active = GI50 up to about 1.1 µM and inactive = higher.

What was measured:
Assay in all cases: NCI-60 cell line screen, 48 h
MDA-MB-435 = system: MDA-MB-435
SNB-19 = system: SNB-19
HCC 2998 = system: HCC 2998
CAKI-1 = system: CAKI-1
HOP-18 = system: HOP-18
786-0 = system: 786-0
HOP-92 = system: HOP-92
T47D = system: T47D
COLO 205 = system: COLO 205
UACC-257 = system: UACC-257
SK-OV-3 = system: SK-OV-3
MDA-N = system: MDA-N
LOX IMVI = system: LOX IMVI
OVCAR-4 = system: OVCAR-4
Malme-3M = system: Malme-3M
RXF 393 = system: RXF 393
NCI/ADR-RES = system: NCI/ADR-RES
RPMI-8226 = system: RPMI-8226
CCRF-CEM = system: CCRF-CEM
KM12 = system: KM12

| SMILES | GI50 (MDA-MB-435) | GI50 (SNB-19) | GI50 (HCC 2998) | GI50 (CAKI-1) | GI50 (HOP-18) | GI50 (786-0) | GI50 (HOP-92) | GI50 (T47D) | GI50 (COLO 205) | GI50 (UACC-257) | GI50 (SK-OV-3) | GI50 (MDA-N) | GI50 (LOX IMVI) | GI50 (OVCAR-4) | GI50 (Malme-3M) | GI50 (RXF 393) | GI50 (NCI/ADR-RES) | GI50 (RPMI-8226) | GI50 (CCRF-CEM) | GI50 (KM12) |
| --- | --- | --- | --- | --- | --- | --- | --- | --- | --- | --- | --- | --- | --- | --- | --- | --- | --- | --- | --- | --- |
| COc1cc(Cn2c(=S)ss/c2=N\C(=S)N(C)C)cc(OC)c1OC | 1.26 µM (inactive) | 46.1 µM (inactive) | 49.1 µM (inactive) | 4.57 µM (inactive) | > 92 µM (inactive) | 7.36 µM (inactive) | 17.9 µM (inactive) | > 86.7 µM (inactive) | 9.33 µM (inactive) | 10.6 µM (inactive) | 13.4 µM (inactive) | 1.1 µM (active) | 4.69 µM (inactive) | 48.4 µM (inactive) | 3.21 µM (inactive) | 2.79 µM (inactive) | 1.61 µM (inactive) | 6.7 µM (inactive) | 4.32 µM (inactive) | 2.64 µM (inactive) |
| N#CC1(C#N)C2(c3ccccc3)OC(c3ccccc3)(c3cc4ccccc4cc32)C1(C#N)C#N | 17.1 µM (inactive) | 15.5 µM (inactive) | 18.5 µM (inactive) | 7.91 µM (inactive) | 3.47 µM (inactive) | 8.51 µM (inactive) | 1.52 µM (inactive) | 13.6 µM (inactive) | 6.17 µM (inactive) | 27.5 µM (inactive) | 21.1 µM (inactive) | 16.9 µM (inactive) | 4.91 µM (inactive) | 11.4 µM (inactive) | 18.1 µM (inactive) | 5.51 µM (inactive) | 21 µM (inactive) | 1.28 µM (inactive) | 1.08 µM (active) | 7.85 µM (inactive) |
| CC(C)C(=O)NS(=O)(=O)c1ccccc1 |  | > 100 µM (inactive) | > 100 µM (inactive) | > 100 µM (inactive) | > 100 µM (inactive) | > 100 µM (inactive) | > 100 µM (inactive) |  | > 100 µM (inactive) | > 100 µM (inactive) | > 100 µM (inactive) |  | > 100 µM (inactive) | > 100 µM (inactive) | > 100 µM (inactive) | > 100 µM (inactive) |  | > 100 µM (inactive) | > 100 µM (inactive) | > 100 µM (inactive) |
| COc1cc2c(cc1OC)C(Cl)C(c1ccc(Br)cc1)=C2Cl (stereo unspecified) | 4.37 µM (inactive) | 16.7 µM (inactive) | 13.3 µM (inactive) | 15.1 µM (inactive) | 20.9 µM (inactive) | 3.94 µM (inactive) | 12.1 µM (inactive) | 3.23 µM (inactive) | 14.4 µM (inactive) | 15.1 µM (inactive) | 16.1 µM (inactive) | 3.23 µM (inactive) | 9.48 µM (inactive) | 13.8 µM (inactive) | 15 µM (inactive) | 11.2 µM (inactive) | 10.9 µM (inactive) | 2.52 µM (inactive) | 10.7 µM (inactive) | 16.3 µM (inactive) |
